pIC50: −log10 of the molar value.
Key:
Assay type in all cases: cell-based
[1] = test system: IL6; assay: LPS stimulated IL6 inhibition assay in PBMC; conditions: Homo sapiens, PBMC, 24 h, human PBMCs, LPS stimulation, compound overnight, IL6 by MSD after 24 hrs; for Dmax: read-out: LPS Stim IL6 inhibition Dmax; for pIC50: read-out: LPS stim IL6 inhibition IC50
Method: (§1) IL-1β, LPS, or R848 Stimulated IL6 Inhibition and IL-1β Stimulated IL8 Inhibition Assay
(§2) Human PBMC cells were seeded at 2.0×10^6 cells/mL, treated with compound overnight, and dosed with the EC50 concentration of each stimulant (either IL-1B. LPS, or R848) was determined for each donor. After 24 hrs, media was collected and analyzed by MSD for IL6 and/or IL8 levels.

[2] = test system: IL6; assay: R848 stimulated IL6 inhibition assay in PBMC; conditions: PBMC, human PBMCs, R848 stimulation, compound overnight, IL6 by MSD after 24 hrs; for Dmax: Homo sapiens, 24 h, read-out: R848 stim IL6 inhibition Dmax; for pIC50: read-out: R848 stim IL6 inhibition IC50
Method: as §1, §2

[3] = molecular target: T1, IRAK-4 (Homo sapiens, UniProt Q9NWZ3); assay: IRAK-4 ELISA, PBMC degradation; design: endogenous in cells; host or cells: PBMC; conditions: treated overnight
T1 sequence (Q9NWZ3 1-460): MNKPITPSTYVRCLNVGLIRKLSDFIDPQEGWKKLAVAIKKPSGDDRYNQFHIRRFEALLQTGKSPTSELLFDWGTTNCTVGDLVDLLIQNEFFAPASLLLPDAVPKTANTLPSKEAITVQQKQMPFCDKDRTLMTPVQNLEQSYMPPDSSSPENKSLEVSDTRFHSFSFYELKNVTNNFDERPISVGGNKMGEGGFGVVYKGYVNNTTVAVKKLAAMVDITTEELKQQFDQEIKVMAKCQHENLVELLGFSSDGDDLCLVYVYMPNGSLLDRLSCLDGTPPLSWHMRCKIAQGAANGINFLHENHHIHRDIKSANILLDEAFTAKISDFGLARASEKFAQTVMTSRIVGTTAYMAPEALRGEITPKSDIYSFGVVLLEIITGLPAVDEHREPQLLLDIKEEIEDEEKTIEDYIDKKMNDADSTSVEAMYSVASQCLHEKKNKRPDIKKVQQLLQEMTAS
Outline: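 IRAK-4 levels measured by matched-antibody-pair ELISA on lysates after overnight compound exposure. Cells seeded same day: PBMC at 2×10^6/ml, OCI-Ly10 at 1×10^6/ml.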

Row | SMILES | pIC50 [1] | pIC50 [2] | DC50 [3] [nM] | Dmax [3] [%] | PBMC DC90 [3] | Dmax [1] [%] | Dmax [2] [%]
1 | O=C1CCC(N2C(=O)c3ccc(N4CCC(CN5CCC(N6Cc7cc(NC(=O)c8cnn9cccnc89)c(N8CCN(CC(F)F)CC8)cc7C6=O)CC5)CC4)cc3C2=O)C(=O)N1 (stereo not drawn) [Example 52] | 7.30 to 8.00 | 7.30 to 8.00 | 1 to 5 | ≥ 90 | A (A represents a DC90 value <10.0 nM) | 80 to 90 | 80 to 90
2 | O=C1CCC(N2C(=O)c3ccc(N4CCC(CN5CCC(N6Cc7cc(NC(=O)c8cnn9cccnc89)c(N8CCN(C9CC(F)(F)C9)CC8)cc7C6=O)CC5)CC4)cc3C2=O)C(=O)N1 (stereo not drawn) [Example 53] | 7.00 to 7.30 | 7.30 to 8.00 | 1 to 5 | ≥ 90 | B (B represents a DC90 value ≥10.0 nM and <25.0 nM) | < 70 | 70 to 80
3 | CC(C)Oc1cc2c(cc1NC(=O)c1cnn3cccnc13)CN(C1CCN(CC3CCN(c4ccc5c(c4)C(=O)N(C4CCC(=O)NC4=O)C5)CC3)CC1)C2=O (stereo not drawn) [Example 105] | ≤ 7.00 | 7.00 to 7.30 | ≥ 10 | – | D (D represents a DC90 value ≥50 nM) | 70 to 80 | 80 to 90
4 | CC(C)Oc1cc2c(cc1NC(=O)c1cnn3cccnc13)CN(C1CCN(CC3(F)CN(c4ccc5c(c4)C(=O)N(C4CCC(=O)NC4=O)C5)C3)CC1)C2=O (stereo not drawn) [Example 106] | ≤ 7.00 | 7.30 to 8.00 | 1 to 5 | ≥ 90 | A (A represents a DC90 value <10.0 nM) | 80 to 90 | ≥ 90
5 | CC(C)Oc1cc2c(cc1NC(=O)c1cnn3cccnc13)CN(C1CCN(CC3(F)CN(c4ccc5c(c4F)CN(C4CCC(=O)NC4=O)C5=O)C3)CC1)C2=O (stereo not drawn) [Example 107] | 7.30 to 8.00 | 7.00 to 7.30 | 1 to 5 | 70 to 80 | A (A represents a DC90 value <10.0 nM) | ≥ 90 | ≥ 90
6 | CC(C)Oc1cc2c(cc1NC(=O)c1cnn3cccnc13)CN(C1CCN(CC3(F)CN(c4cc(F)c5c(c4)C(=O)N(C4CCC(=O)NC4=O)C5)C3)CC1)C2=O (stereo not drawn) [Example 108] | 7.30 to 8.00 | 7.30 to 8.00 | 1 to 5 | ≥ 90 | B (B represents a DC90 value ≥10.0 nM and <25.0 nM) | 80 to 90 | ≥ 90
7 | CC(C)Oc1cc2c(cc1NC(=O)c1cnn3cccnc13)CN(C1CCN(CC3(O)CCN(c4ccc5c(c4)C(=O)N(C4CCC(=O)NC4=O)C5=O)CC3)CC1)C2=O (stereo not drawn) [Example 109] | 7.30 to 8.00 | 7.30 to 8.00 | < 1 | ≥ 90 | A (A represents a DC90 value <10.0 nM) | 70 to 80 | ≥ 90

Second part, led by results:

Row | pIC50 [1] | pIC50 [2] | DC50 [3] [nM] | Dmax [3] [%] | PBMC DC90 [3] | SMILES | Dmax [1] [%] | Dmax [2] [%]
8 | > 8.00 | 7.30 to 8.00 | 1 to 5 | ≥ 90 | A (A represents a DC90 value <10.0 nM) | O=C1CCC(N2Cc3cc(N4CCC(CN5CCC(N6Cc7cc(NC(=O)c8cnn9cccnc89)c(N8CCN(C9CC(F)(F)C9)CC8)cc7C6=O)CC5)CC4)ccc3C2=O)C(=O)N1 (stereo not drawn) [Example 54] | < 70 | 80 to 90
9 | > 8.00 | 7.30 to 8.00 | < 1 | ≥ 90 | A (A represents a DC90 value <10.0 nM) | O=C1CCC(N2Cc3c(ccc(N4CCC(CN5CCC(N6Cc7cc(NC(=O)c8cnn9cccnc89)c(N8CCN(C9CC(F)(F)C9)CC8)cc7C6=O)CC5)CC4)c3F)C2=O)C(=O)N1 (stereo not drawn) [Example 55] | < 70 | ≥ 90
10 | > 8.00 | 7.30 to 8.00 | 1 to 5 | ≥ 90 | A (A represents a DC90 value <10.0 nM) | Cc1cnc2c(C(=O)Nc3cc4c(cc3OC(C)C)C(=O)N(C3CCN(CC5CCN(c6ccc7c(c6)C(=O)N(C6CCC(=O)NC6=O)C7=O)CC5)CC3)C4)cnn2c1 (stereo not drawn) [Example 56] | 70 to 80 | ≥ 90

— patent US20230099344A1, “COMPOUNDS AND METHODS FOR THE TARGETED DEGRADATION OF IRAK-4” (Arvinas Operations, Inc., priority 2021, published 2023)
